Where two headings read alike, the source gives them in different places.
Experiments:
[1] = molecular target: T1, Human mTOR (FLAG-TOR) (Homo sapiens, UniProt P42345); assay: Human mTOR kinase assay with purified enzyme, DELFIA format; type: biochemical
T1 construct: FLAG
In short: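 Purified FLAG-mTOR in HEPES pH 7.4 buffer with 10 mM MnCl2 was preincubated with inhibitor and reacted 2 h at room temperature with His6-S6K substrate, then stopped with EDTA/EGTA. Phospho-T389 S6K detected by DELFIA with Eu-labelled antibody (40 ng/mL) after plate capture; inhibition computed from signal.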

[2] = molecular target: T2, PI3K (Homo sapiens, UniProt P42336); assay: Fluorescence polarization assay for PI3K; type: biochemical; conditions: read-out: PI3 Kinase α IC50
T2 construct: PI3 Kinase α IC50; other: PI3 Kinase α; other: PI3 Kinase α isoform, fluorescence polarization
T2 sequence (P42336 whole entry, canonical isoform): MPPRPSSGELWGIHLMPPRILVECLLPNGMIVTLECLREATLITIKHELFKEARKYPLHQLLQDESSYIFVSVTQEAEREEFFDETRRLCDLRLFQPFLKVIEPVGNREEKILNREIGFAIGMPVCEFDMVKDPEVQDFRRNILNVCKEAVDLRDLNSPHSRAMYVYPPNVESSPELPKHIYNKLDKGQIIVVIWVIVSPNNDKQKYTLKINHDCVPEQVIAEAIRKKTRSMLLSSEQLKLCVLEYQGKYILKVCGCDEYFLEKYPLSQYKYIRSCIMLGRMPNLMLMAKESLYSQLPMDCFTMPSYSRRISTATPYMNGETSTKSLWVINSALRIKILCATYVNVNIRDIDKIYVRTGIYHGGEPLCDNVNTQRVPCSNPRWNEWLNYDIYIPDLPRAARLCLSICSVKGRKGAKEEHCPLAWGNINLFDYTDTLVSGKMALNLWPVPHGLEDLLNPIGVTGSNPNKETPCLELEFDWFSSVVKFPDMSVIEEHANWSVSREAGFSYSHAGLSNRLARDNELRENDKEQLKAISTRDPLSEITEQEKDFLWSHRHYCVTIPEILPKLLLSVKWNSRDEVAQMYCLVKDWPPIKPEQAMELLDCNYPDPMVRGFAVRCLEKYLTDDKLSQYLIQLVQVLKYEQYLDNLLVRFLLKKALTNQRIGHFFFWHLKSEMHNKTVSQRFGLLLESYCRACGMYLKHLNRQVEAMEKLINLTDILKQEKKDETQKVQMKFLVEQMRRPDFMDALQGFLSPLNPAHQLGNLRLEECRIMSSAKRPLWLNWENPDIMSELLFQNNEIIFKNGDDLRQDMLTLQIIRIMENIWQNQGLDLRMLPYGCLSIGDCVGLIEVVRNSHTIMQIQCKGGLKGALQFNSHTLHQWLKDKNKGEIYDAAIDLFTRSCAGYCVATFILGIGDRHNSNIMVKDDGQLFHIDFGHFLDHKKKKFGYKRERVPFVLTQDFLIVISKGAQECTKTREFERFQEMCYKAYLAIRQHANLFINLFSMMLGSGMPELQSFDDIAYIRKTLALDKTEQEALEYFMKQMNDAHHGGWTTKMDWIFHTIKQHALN
In short: (§1)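 PI3K was preincubated with compound (final DMSO 1%), and the reaction was started with PIP2/ATP substrate and run 30–60 min. It was stopped with a detector mix giving 10 nM red probe and 70 nM GST-GRP.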

[3] = molecular target: T3, PI3K (Homo sapiens, UniProt P48736); assay: Fluorescence polarization assay for PI3K; type: biochemical; conditions: read-out: PI3 Kinase γ IC50
T3 construct: PI3 Kinase γ IC50; other: PI3 Kinase γ; other: PI3 Kinase γ isoform, fluorescence polarization
T3 sequence (P48736 whole entry, canonical isoform): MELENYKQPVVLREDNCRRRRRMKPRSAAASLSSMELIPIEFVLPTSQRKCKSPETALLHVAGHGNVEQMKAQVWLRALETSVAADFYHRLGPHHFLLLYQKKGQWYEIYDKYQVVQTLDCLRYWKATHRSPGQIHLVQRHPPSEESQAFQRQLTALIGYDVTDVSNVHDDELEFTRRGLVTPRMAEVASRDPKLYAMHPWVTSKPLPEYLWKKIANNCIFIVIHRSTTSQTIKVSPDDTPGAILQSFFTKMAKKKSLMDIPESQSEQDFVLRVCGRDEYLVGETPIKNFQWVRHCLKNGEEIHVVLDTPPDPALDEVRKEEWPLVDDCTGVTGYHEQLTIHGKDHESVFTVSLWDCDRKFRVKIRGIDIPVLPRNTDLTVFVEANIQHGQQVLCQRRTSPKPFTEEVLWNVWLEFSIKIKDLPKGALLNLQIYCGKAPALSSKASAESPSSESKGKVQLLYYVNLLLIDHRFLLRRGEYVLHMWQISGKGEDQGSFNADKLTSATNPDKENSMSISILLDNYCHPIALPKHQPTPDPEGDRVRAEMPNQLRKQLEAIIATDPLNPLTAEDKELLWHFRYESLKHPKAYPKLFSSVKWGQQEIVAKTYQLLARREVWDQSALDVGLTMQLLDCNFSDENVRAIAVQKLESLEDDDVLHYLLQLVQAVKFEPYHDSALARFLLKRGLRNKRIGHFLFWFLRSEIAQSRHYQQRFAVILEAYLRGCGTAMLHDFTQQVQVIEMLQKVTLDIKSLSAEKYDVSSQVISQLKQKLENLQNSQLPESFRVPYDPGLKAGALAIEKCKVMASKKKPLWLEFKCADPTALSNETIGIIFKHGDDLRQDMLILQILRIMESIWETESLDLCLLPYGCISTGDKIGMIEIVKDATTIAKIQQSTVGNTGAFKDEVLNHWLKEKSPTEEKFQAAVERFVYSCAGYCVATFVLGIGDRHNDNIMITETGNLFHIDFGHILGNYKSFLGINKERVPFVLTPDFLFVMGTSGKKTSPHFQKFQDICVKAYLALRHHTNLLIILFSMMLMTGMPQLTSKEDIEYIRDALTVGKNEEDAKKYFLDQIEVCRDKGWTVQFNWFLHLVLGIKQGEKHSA
In short: as §1

[4] = tested on: prostate line LNCap; assay: In vitro cell culture growth assay (MTS), LNCap; type: cell-based; conditions: Homo sapiens, LNCaP, 72 h, LNCap cells, three days after drug treatment
In short: (§2)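 Cells were plated and, one day later, treated with inhibitors. Three days after treatment, viable cell density was measured by MTS dye conversion, read as absorbance at 490 nm. Effects are expressed as percent of control growth versus vehicle-treated cells on the same plate.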

[5] = tested on: breast line MDA468; assay: In vitro cell culture growth assay (MTS), MDA468; type: cell-based; conditions: Homo sapiens, 72 h, MDA468 cells, three days after drug treatment
In short: as §2

[6] = purified human mTOR enzyme, DELFIA format
[7] = PI3 Kinase α isoform, fluorescence polarization
[8] = PI3 Kinase γ isoform, fluorescence polarization

| Compound | IC50 [1] [nM] | IC50 ([2]; PI3 Kinase α) [nM] | IC50 ([3]; PI3 Kinase γ) [nM] | IC50 [4] [nM] | IC50 [5] [nM] | IC50 [1, 6] [nM] | IC50 [2, 7] [nM] | IC50 [3, 8] [nM] |
| --- | --- | --- | --- | --- | --- | --- | --- | --- |
| CNC(=O)Nc1ccc(-c2nc(N3CC4CCC(C3)O4)c3cnn(C4CCN(C(=O)OC(C)(C)C)CC4)c3n2)cc1 [Example 8, tert-butyl 4-[6-{4-[(methylcarbamoyl)amino]phenyl}-4-(8-oxa-3-azabicyclo[3.2.1]oct-3-yl)-1H-pyrazolo[3,4-d]pyrimidin-1-yl]piperidine-1-carboxylate] | 0.28 | 1480 | > 10000 | < 27 | 180 | – | – | – |
| O=C(Nc1ccc(-c2nc(N3C4CCC3COC4)c3cnn(CC(F)(F)F)c3n2)cc1)NC1CC1 [Example 271, 1-cyclopropyl-3-{4-[4-(3-oxa-8-azabicyclo[3.2.1]oct-8-yl)-1-(2,2,2-trifluoroethyl)-1H-pyrazolo[3,4-d]pyrimidin-6-yl]phenyl}urea] | 0.355 | 3680 | 9000 | 7 | 80 | – | – | – |
| COC(=O)Nc1ccc(-c2nc(N3CC4CCC(C3)O4)c3cnn(C4CCN(C(=O)OC)CC4)c3n2)cc1 [Example 119, methyl 4-[6-{4-[(methoxycarbonyl)amino]phenyl}-4-(8-oxa-3-azabicyclo[3.2.1]oct-3-yl)-1H-pyrazolo[3,4-d]pyrimidin-1-yl]piperidine-1-carboxylate] | 3.6 | 4670 | > 10000 | 180 | 1200 | – | – | – |
| CN1CCN(c2ccc(NC(=O)Nc3ccc(-c4nc(N5CC6CCC(C5)O6)c5cnn(C)c5n4)cc3)cn2)CC1 [Example 235, 1-{4-[1-methyl-4-(8-oxa-3-azabicyclo[3.2.1]oct-3-yl)-1H-pyrazolo[3,4-d]pyrimidin-6-yl]phenyl}-3-[6-(4-methylpiperazin-1-yl)pyridin-3-yl]urea] | 0.625 | 187 | 1060 | 3 | 68 | – | – | – |
| CNC(=O)Nc1ccc(-c2nc(N3CC4CCC(C3)O4)c3sccc3n2)cc1 [Example 406, 1-methyl-3-{4-[4-(8-oxa-3-azabicyclo[3.2.1]oct-3-yl)thieno[3,2-d]pyrimidin-2-yl]phenyl}urea] | – | – | – | 85 | 400 | 0.94 | 423 | > 10000 |
| O=C1OCCN1c1ccc(-c2nc(N3CC4CCC(C3)O4)c3cnn(C4CCC5(CC4)OCCO5)c3n2)cc1 [Example 131, 3-{4-[1-(1,4-dioxaspiro[4.5]dec-8-yl)-4-(8-oxa-3-azabicyclo[3.2.1]oct-3-yl)-1H-pyrazolo[3,4-d]pyrimidin-6-yl]phenyl}-1,3-oxazolidin-2-one] | 635 | > 10000 | > 10000 | > 60000 | > 60000 | – | – | – |
| CN(C)CCOc1ccc(NC(=O)Nc2ccc(-c3nc(N4C5CCC4COC5)c4cnn(CC(F)(F)F)c4n3)cc2)cc1 [Example 275, 1-{4-[2-(dimethylamino)ethoxy]phenyl}-3-{4-[4-(3-oxa-8-azabicyclo[3.2.1]oct-8-yl)-1-(2,2,2-trifluoroethyl)-1H-pyrazolo[3,4-d]pyrimidin-6-yl]phenyl}urea] | 0.575 | 275 | 3110 | < 1 | < 1 | – | – | – |
| CN(C)c1ccc(NC(=O)Nc2ccc(-c3nc(N4CC5CCC(C4)O5)c4cnn(CCF)c4n3)cc2)cc1 [Example 242, 1-[4-(dimethylamino)phenyl]-3-{4-[1-(2-fluoroethyl)-4-(8-oxa-3-azabicyclo[3.2.1]oct-3-yl)-1H-pyrazolo[3,4-d]pyrimidin-6-yl]phenyl}urea] | 0.655 | 869 | > 10000 | 4 | 19 | – | – | – |
| Nc1ccc(-c2nc(N3CC4CCC(C3)O4)c3sccc3n2)cn1 [Example 420, 5-[4-(8-oxa-3-azabicyclo[3.2.1]oct-3-yl)thieno[3,2-d]pyrimidin-2-yl]pyridin-2-amine] | – | – | – | 1250 | 4800 | 32 | 1770 | > 10000 |
| C=Cc1nn(CC)c2nc(-c3ccc(NC(=O)NC)cc3)nc(N3CC4CCC(C3)O4)c12 [Example 350, 1-{4-[1-ethyl-4-(8-oxa-3-azabicyclo[3.2.1]oct-3-yl)-3-vinyl-1H-pyrazolo[3,4-d]pyrimidin-6-yl]phenyl}-3-methylurea] | – | – | – | 130 | 480 | 1.95 | 565 | 6580 |
| CN1CCN(c2ccc(NC(=O)Nc3ccc(-c4nc(N5CC6CCC(C5)O6)c5cnn([C@H]6CC[C@H](O)CC6)c5n4)cc3)cc2)CC1 (relative stereo) [Example 404, 1-{4-[1-(trans-4-hydroxycyclohexyl)-4-(8-oxa-3-azabicyclo[3.2.1]oct-3-yl)-1H-pyrazolo[3,4-d]pyrimidin-6-yl]phenyl}-3-[4-(4-methylpiperazin-1-yl)phenyl]urea] | – | – | – | < 1 | 18 | 0.19 | 93 | 1140 |
| CNC(=O)Nc1ccc(-c2nc(N3CC4COC(C3)O4)c3cnn(C)c3n2)cc1 (centres unmarked) [Example 392, 1-{4-[4-(6,8-dioxa-3-azabicyclo[3.2.1]oct-3-yl)-1-methyl-1H-pyrazolo[3,4-d]pyrimidin-6-yl]phenyl}-3-methylurea] | – | – | – | 1200 | 4800 | 39.5 | 582 | 11000 |
| CN1CCN(c2ccc(NC(=O)Nc3ccc(-c4nc(N5CC6CCC(C5)O6)c5cnn(C6CCC(=O)CC6)c5n4)cc3)cc2)CC1 [Example 400, 1-[4-(4-methylpiperazin-1-yl)phenyl]-3-{4-[4-(8-oxa-3-azabicyclo[3.2.1]oct-3-yl)-1-(4-oxocyclohexyl)-1H-pyrazolo[3,4-d]pyrimidin-6-yl]phenyl}urea] | – | – | – | < 1 | < 1 | 0.335 | 165 | 1990 |
| CCn1ncc2c(N3CC4CCC(C3)O4)nc(-c3ccc(NC(=O)Nc4ccc(Cl)cc4)cc3)nc21 [Example 188, 1-(4-chlorophenyl)-3-{4-[1-ethyl-4-(8-oxa-3-azabicyclo[3.2.1]oct-3-yl)-1H-pyrazolo[3,4-d]pyrimidin-6-yl]phenyl}urea] | 1.1 | 464 | 2980 | 10 | 190 | – | – | – |
| CC(C)n1ncc2c(N3CC4CCC(C3)O4)nc(-c3ccc(NC(=O)Nc4cccnc4)cc3)nc21 [Example 148, 1-{4-[1-isopropyl-4-(8-oxa-3-azabicyclo[3.2.1]oct-3-yl)-1H-pyrazolo[3,4-d]pyrimidin-6-yl]phenyl}-3-pyridin-3-ylurea] | 0.064 | 49 | 781 | < 1 | 9 | – | – | – |
| Nc1cccc(COC(=O)Nc2ccc(-c3nc(N4CC5CCC(C4)O5)c4cnn(CC(F)(F)F)c4n3)cc2)c1 [Example 254, 3-aminobenzyl {4-[4-(8-oxa-3-azabicyclo[3.2.1]oct-3-yl)-1-(2,2,2-trifluoroethyl)-1H-pyrazolo[3,4-d]pyrimidin-6-yl]phenyl}carbamate] | 1620 | 9650 | 12000 | 6200 | 200 | – | – | – |

— patent US8129371B2, “Thienopyrimidine and pyrazolopyrimidine compounds and their use as mTOR kinase and PI3 kinase inhibitors” (Wyeth LLC, priority 2007, dated 2012)
